In patent US20110059909A1, “METHODS FOR TREATING INFLAMMATORY DISORDERS” (priority 2004, published 2011):
Values belong to the compound of their own block, whether it stands above or below them.

Legend:
X-ALD patients = conditions: cited from earlier work
small GTPase Ras = test: Quantification of Ras activation (GST-Raf-1 RBD pull-down) in primary astrocytes; assay type: cell-based, rat; conditions: pretreated 0.5 h, TNFα
Protocol: After stimulation, primary astrocytes in 6-well plates were washed with ice cold PBS and lysed in membrane lysis buffer (MLB; 0.5 ml of 25 mM HEPES, pH 7.5, 150 mM NaCl, 1% Igepal CA-630, 0.25% sodium deoxycholate, 10% glycerol, 10 mM MgCl2, 1 mM EDTA, 25 mM NaF, 1 mM of sodium orthovanadate, and EDTA free Complete™ protease inhibitor cocktail). After centrifugation (5,000×g) at 4° C. for 5 min, supernatant was used for Ras activation assay. One hundred μg of supernatant was used for binding with agarose conjugated Ras-binding domain (RBD) of Raf-1 which was expressed in BL21 (Invitrogen), Escherichia coli strain, transformed by pGEX-2T-GST-RBD in the presence of 0.1 mM of IPTG as described previously (Herrmann et al., 1995). The binding reaction was performed at 4° C. for 30 min in MLB. Following washing with MLB three times, Ras-RBD complex were denatured by adding of 2×SDS sample buffer. Ras protein was identified by western blot analysis with Ras antibodies from Upstate Biotechnology.

LacCer synthase (GalT-2) = target: T1, LacCer synthase (GalT-2) (Rattus norvegicus, UniProt O88419); test: Measurement of [14C]LacCer synthesis in primary astrocytes (HPTLC); assay type: cell-based; conditions: TNFα 1 ng/ml
T1 construct: using cell lysates derived from cells stimulated with LPS/IFNγ; endogenous in cells; host or cells: rat primary astrocytes
T1 sequence (O88419 1-382): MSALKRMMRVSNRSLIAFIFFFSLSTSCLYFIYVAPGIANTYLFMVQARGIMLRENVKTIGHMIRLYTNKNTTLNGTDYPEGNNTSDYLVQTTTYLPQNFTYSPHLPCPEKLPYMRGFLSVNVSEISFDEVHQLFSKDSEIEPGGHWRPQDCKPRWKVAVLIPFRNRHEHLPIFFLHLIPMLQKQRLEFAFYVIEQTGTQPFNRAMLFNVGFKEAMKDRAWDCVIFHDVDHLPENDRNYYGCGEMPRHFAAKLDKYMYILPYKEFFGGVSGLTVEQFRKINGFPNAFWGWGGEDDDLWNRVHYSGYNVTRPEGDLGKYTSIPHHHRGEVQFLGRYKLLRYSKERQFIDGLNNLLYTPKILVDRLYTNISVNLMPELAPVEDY
Protocol: Cultured cells were incubated in growth medium containing [^14C]galactose (5 μCi/ml) for 24 h as described previously. The medium was removed, and the cell monolayer was washed with sterile PBS. After the stimulation with LPS/IFNγ (1 μg/ml; 10 U/ml) for various durations, cells were then harvested and washed with ice cold PBS and lysed by sonication. 200 μg of protein was used for extraction of lipids using Chloroform:Methanol:HCl (100:100:1). The organic phase was dried under nitrogen. Glycosphingolipids were resolved by high performance thin layer chromatography using chloroform/methanol/0.25% KCl (70:30:4, v/v/v) as the developing solvent. The gel area corresponding to LacCer was scraped, and radioactivity was measured employing “liquiscint” (NEN Life Science Products) as a scintillating fluid.

GalT-2 = GalT-2 activity assay on cell lysates; assay type: cell-based, rat; conditions: LY pretreatment
Protocol: The activity of GalT-2 was measured using [^3H]UDP-galactose as the galactose donor and GlcCer as the acceptor as described previously (Yeh et al., 2001). Briefly, cells were harvested in PBS and cell pellets were suspended in Triton X-100 lysis buffer. Cell lysates were sonicated and following protein quantification, 100 μg of cell lysate was added to reaction mixture containing […] of cacodylate buffer (pH 6.8), 1 mM Mn/Mg, 0.2 mg/ml Triton X-100 (1:2 v/v), 30 nmol of GluCer and […] of UDP-[^3H]galactose in a total volume of 100 μl. The reaction was terminated by adding 10 μl of 0.25M EDTA, 10 μl of 0.5M KCl and 500 μl of Chloroform/Methanol (2:1 v/v) and the products were separated by centrifugation. The lower phase was collected and dried under nitrogen. Following resolution on HPTLC plates, the gel was cut out and radioactivity was measured in a scintillation counter. Assay without exogenous GluCer served as blank and their radioactivity counts were subtracted from all respective data points.

rat primary astrocytes = test: BrdU incorporation assay, proliferation of primary astrocytes; assay type: cell-based; conditions: pretreated 0.5 h (AS: 48 h after transfection), TNFα 1 ng/ml 18 h, BrdU incorporation
Protocol: Primary astrocyte-enriched cultures were prepared from the whole cortex of one day old Sprague-Dawley rats as described earlier (Pahan et al., 1998b). Briefly, the cortex was rapidly dissected in ice-cold calcium/magnesium free Hanks Balanced Salt Solution (HBSS) (Gibco, Grand Island, N.Y.) at pH 7.4 as described previously (Won et al., 2001). The tissue was then minced, incubated in HBSS containing trypsin (2 mg/ml) for 20 min and washed twice in plating medium containing 10% FBS and 10 μg/ml gentamicin, and then disrupted by triturating through a Pasteur pipette following which cells were seeded in 75-cm^2 culture flasks (Falcon, Franklin, N.J.). After incubation at 37° C. in 5% CO2 for 1 day, the medium was completely changed to the culture medium (DMEM containing 5% FBS and 10 μg/ml gentamicin). The cultures received half exchanges with fresh medium twice a week. After 14-15 days the cells were shaken for at least 24 h on an orbital shaker to remove the microglia and then seeded on multi-well tissue culture dishes. The cells were incubated with serum-free DMEM for 24 h prior to the incubation with drugs.
Proliferation of primary astrocytes was assayed by using the Cell proliferation ELISA, BrdU colorimetric assay kit (Roche, Germany) according to manufacturer's protocol. Briefly, cells were seeded in 96 well plates in quadruplicate and following overnight serum starvation were stimulated with mitogenic stimulants. 2 h before termination of proliferation assay, BrdU (10 μM) was added to each well following which cells were fixed and levels of incorporated BrdU were assayed by using a conjugated anti-BrdU enzyme. Colorimetric analysis was done by measuring absorbance at 370 nm using a spectramax MAX 190 (Molecular devices) multi-well plate reading spectrophotometer.

ERK1/2 = ERK1/2 activation (phospho-ERK1/2 immunoblot) in primary astrocytes; assay type: cell-based, rat; conditions: pretreated 0.5 h, TNFα 20 min
Protocol: (§1) For iNOS protein, the cells were washed with cold Tris buffered saline (TBS; 20 mM Trizma base, and 137 mM NaCl, pH 7.5), lysed in 1×SDS sample loading buffer (62.5 mM Trizma base, 2% w/v SDS, 10% glycerol), following sonication and centrifugation at 15,000×g for 5 min, the supernatant was used for the iNOS western immunoblot assay. The protein concentration of samples was determined with the detergent compatible protein assay reagent (Bio-Rad Laboratories, CA) using bovine serum albumin (BSA) as the standard. Sample was boiled for 3 min with 0.1 volumes of 10% β-mercaptoethanol and 0.5% bromophenol blue mix. Fifty μg of total cellular protein was resolved by electrophoresis on 8 or 12% polyacrylamide gels, electro-transferred to polyvinylidene difluoride (PVDF) filter and blocked with Tween 20 containing Tris-buffered saline (TBST; 10 mM Trizma base-pH 7.4, 1% Tween 20, and 150 mM NaCl) with 5% skim milk. After incubation with antiserum against iNOS (BD PharMingen, CA), rat GalT-2 (Abjent Inc., CA), H-Ras (Upstate Biotechnology, CA), GFAP (Santa Cruz Biotech, CA), or phospho-specific ERK1/2 (Cell signaling Tech Inc., MA), or pIκ-B (Signal Transduction), in PVDF buffer for 2 h at room temperature, the filters were washed 3 times with TBST buffer and then incubated with horseradish peroxidase conjugated anti-rabbit or mouse IgG for 1 h. The membranes were detected by autoradiography using ECL-plus (Amersham Pharmacia Biotech) after washing with TBST buffer.

GFAP = GFAP mRNA (real time PCR) and protein (immunoblot) in TNFα-stimulated primary astrocytes; assay type: cell-based, rat; conditions: TNFα 1 ng/ml; mRNA 8 h, protein 18 h
Protocol: as §1

[1] = system: primary cultured rat neocortical explants; conditions: cited from earlier work
mice = conditions: cited from earlier work
[2] = system: primary cultured rat neocortical explants; conditions: cited from earlier work; remark: listed apart in the source

SMILES: CCCCCCCC/C=C\CCCCCCCC(=O)OCC(COC(=O)CCCCCCC/C=C\CCCCCCCC)OC(=O)CCCCCCC/C=C\CCCCCCCC [trioleate]
Reduction of VLCFA (X-ALD patients): 50%

TNFα-induced Ras activation (small GTPase Ras): inhibited
[14C]LacCer synthesis upon TNFα-stimulation (LacCer synthase (GalT-2)): inhibited
SMILES: O=c1cc(N2CCOCC2)oc2c(-c3ccccc3)cccc12 [LY, 2-(4-Morpholinyl)-8-phenyl-4H-1-benzopyran-4-one]
TNFα-induced GalT-2 activation (GalT-2): inhibition
TNFα-induced astrocyte proliferation (rat primary astrocytes): significantly attenuated
TNFα-induced ERK1/2 phosphorylation (ERK1/2): inhibited
TNFα-induced GFAP mRNA and protein expression (GFAP): inhibited

SMILES: CCCCCCCCCC(=O)N[C@@H](CN1CCOCC1)[C@@H](O)c1ccccc1 [L-threo PDMP]
Neurite outgrowth [1]: stimulated
LD50 values, L-threo PDMP compared to D-threo PDMP (mice): higher
GSL biosynthesis [2]: stimulated
